In patent publication US8735414B2 (priority 2009, dated 2014) one finds melting point and IC50 data, which are given here for 25 molecules.

Series [1] deals with bicistronic HCV replicon (replicon RNA, GenBank Accession No. AJ242654). As to the kind of experiment: HCV Replicon Assay. The format is cell-based. Conditions: Hepatitis C virus, 72 h, read-out: Replicon IC50. Background: Replicon systems follow genome replication, usually without infectious particles.

A word on the melting point: it is the temperature, or range, at which the solid turns liquid. Broadly, the IC50 is the point on the concentration scale where inhibition reaches its midpoint. Molecule `Cc1cc(-c2c(C#N)c3cc(F)ccc3n2-c2ncccn2)ncc1S(=O)(=O)N[C@@H](C)C(F)(F)F` [compound 848, 6-[3-cyano-5-fluoro-1-(pyrimidin-2-yl)-1H-indol-2-yl]-4-methyl-N-[(2S)-1,1,1-trifluoropropan-2-yl]pyridine-3-sulfonamide] yielded a melting point of 199 to 204 °C. In addition, the half-inhibitory concentration (IC50) in series [1] is below 500 nM.

Turning to `CCc1cc2c(cc1F)c(C(N)=O)c(-c1ccc(S(=O)(=O)N[C@@H](C)C(F)(F)F)cn1)n2-c1ncccn1` [compound 849, 6-ethyl-5-fluoro-1-(pyrimidin-2-yl)-2-(5-{[(2S)-1,1,1-trifluoropropan-2-yl]sulfamoyl}pyridin-2-yl)-1H-indole-3-carboxamide], the melting point is 235 to 236 °C. For the same molecule, the 50% inhibitory concentration (IC50) in series [1] was below 500 nM.

`CC(C)(NS(=O)(=O)c1ccc(-c2c(C(N)=O)c3cc(F)c(C4CC4)cc3n2C2CCCC2)nc1)C(F)(F)F` [compound 850, 1-cyclopentyl-6-cyclopropyl-5-fluoro-2-{5-[(1,1,1-trifluoro-2-methylpropan-2-yl)sulfamoyl]pyridin-2-yl}-1H-indole-3-carboxamide] had a melting point of 236 to 237 °C. Also, the 50% inhibitory concentration (IC50) in series [1] was below 500 nM.

In turn, `CCc1cc2c(cc1F)c(C#N)c(-c1cc(C)c(S(=O)(=O)N[C@@H](C)C(F)(F)F)cn1)n2-c1ncccn1` [compound 851, 6-[3-cyano-6-ethyl-5-fluoro-1-(pyrimidin-2-yl)-1H-indol-2-yl]-4-methyl-N-[(2S)-1,1,1-trifluoropropan-2-yl]pyridine-3-sulfonamide] gave a melting point of 231 to 236 °C. In addition, in series [1], the IC50 was below 500 nM.

`CCc1cc2c(cc1F)c(C#N)c(-c1cc(C)c(S(=O)(=O)N[C@@H](C)C(F)(F)F)cn1)n2-c1ccccn1` [compound 852, 6-[3-cyano-6-ethyl-5-fluoro-1-(pyridin-2-yl)-1H-indol-2-yl]-4-methyl-N-[(2S)-1,1,1-trifluoropropan-2-yl]pyridine-3-sulfonamide] had a melting point of 178 to 183 °C. Further, the 50% inhibitory concentration (IC50) in series [1] was below 500 nM.

Consider `CCc1cc2c(cc1F)c(C#N)c(-c1ccc(S(=O)(=O)NC(C)(C)C)cn1)n2-c1ncccn1` [compound 855, N-tert-butyl-6-[3-cyano-6-ethyl-5-fluoro-1-(pyrimidin-2-yl)-1H-indol-2-yl]pyridine-3-sulfonamide], for which the melting point was in the range of 208 to 210 °C. The half-inhibitory concentration (IC50) in series [1] was below 500 nM.

Regarding `Cc1cc2c(cc1F)c(C(N)=O)c(-c1ccc(S(=O)(=O)NC3(C(F)(F)F)CC3)cn1)n2C1CCCCC1` [compound 857, 1-cyclohexyl-5-fluoro-6-methyl-2-(5-{[1-(trifluoromethyl)cyclopropyl]sulfamoyl}pyridin-2-yl)-1H-indole-3-carboxamide], the melting point fell in the range of 273 to 274 °C. Also, the IC50 in series [1] is below 500 nM.

Turning to `CCc1cc(OC)c2c(C#N)c(-c3ccc(S(=O)(=O)N[C@@H](C)C(F)(F)F)cn3)n(C3CCC3)c2c1` [compound 858, 6-(3-cyano-1-cyclobutyl-6-ethyl-4-methoxy-1H-indol-2-yl)-N-[(2S)-1,1,1-trifluoropropan-2-yl]pyridine-3-sulfonamide], the melting point lay in the range of 187 to 188 °C. Further, the half-inhibitory concentration (IC50) in series [1] fell in the range of 500 to 2000 nM.

`CCc1cc2c(cc1F)c(C#N)c(-c1ccc(S(=O)(=O)NC3(C)CC3)cn1)n2-c1ncccn1` [compound 860, 6-[3-cyano-6-ethyl-5-fluoro-1-(pyrimidin-2-yl)-1H-indol-2-yl]-N-(1-methylcyclopropyl)pyridine-3-sulfonamide] returned a melting point of 169 to 179 °C. Moreover, in series [1], the half-inhibitory concentration (IC50) is below 500 nM.

Turning to `CCc1cc2c(cc1F)c(C#N)c(-c1ccc(S(=O)(=O)N(c3ncccn3)C3(C)CC3)cn1)n2-c1ncccn1` [compound 861, 6-[3-cyano-6-ethyl-5-fluoro-1-(pyrimidin-2-yl)-1H-indol-2-yl]-N-(1-methylcyclopropyl)-N-(pyrimidin-2-yl)pyridine-3-sulfonamide], the melting point lay in the range of 193 to 200 °C. In series [1], the IC50 was in the range of 2000 to 5000 nM.

As for `CC(C)(NS(=O)(=O)c1ccc(-c2c(C(N)=O)c3cc(F)c(OC(F)F)cc3n2C2CCCC2)nc1)C(F)(F)F` [compound 863, 1-cyclopentyl-6-(difluoromethoxy)-5-fluoro-2-{5-[(1,1,1-trifluoro-2-methylpropan-2-yl)sulfamoyl]pyridin-2-yl}-1H-indole-3-carboxamide], the melting point is 215 to 217 °C. For the same molecule, the half-maximal inhibitory concentration (IC50) in series [1] was below 500 nM.

In the case of `CCc1cc2c(cc1F)c(C#N)c(-c1ncc(S(=O)(=O)N[C@@H](C)C(F)(F)F)cc1C)n2-c1ncccn1` [compound 867, 6-[3-cyano-6-ethyl-5-fluoro-1-(pyrimidin-2-yl)-1H-indol-2-yl]-5-methyl-N-[(2S)-1,1,1-trifluoropropan-2-yl]pyridine-3-sulfonamide], the melting point fell in the range of 192 to 198 °C. Besides, in series [1], the concentration for half-maximal inhibition (IC50) is below 500 nM.

With `Cc1cc2c(cc1F)c(C#N)c(-c1ccc(S(=O)(=O)N[C@@H](C)C(F)(F)F)c(C)n1)n2C1CCCC1` [compound 868, 6-(3-cyano-1-cyclopentyl-5-fluoro-6-methyl-1H-indol-2-yl)-2-methyl-N-[(2S)-1,1,1-trifluoropropan-2-yl]pyridine-3-sulfonamide], the melting point was 206 to 211 °C. In addition, in series [1], the IC50 was below 500 nM.

`CCc1cc2c(cc1F)c(S(C)(=O)=O)c(-c1ccc(S(=O)(=O)NC(C)(C)C)cn1)n2-c1ncccn1` [compound 869, N-tert-butyl-6-(6-ethyl-5-fluoro-3-(methylsulfonyl)-1-(pyrimidin-2-yl)-1H-indol-2-yl)pyridine-3-sulfonamide]: the melting point was 244 to 248 °C. Moreover, the half-maximal inhibitory concentration (IC50) in series [1] was in the range of 500 to 2000 nM.

With `CCc1cc2c(cc1F)c(C#N)c(-c1ncc(S(=O)(=O)N[C@@H](C)C(F)(F)F)cc1C)n2-c1ccccn1` [compound 870, 6-[3-cyano-6-ethyl-5-fluoro-1-(pyridin-2-yl)-1H-indol-2-yl]-5-methyl-N-[(2S)-1,1,1-trifluoropropan-2-yl]pyridine-3-sulfonamide], the melting point is 195 to 198 °C. Also, the IC50 in series [1] is below 500 nM.

With `CCc1cc2c(cc1F)c(C(N)=O)c(-c1ccc(S(=O)(=O)NC(C)(C)C(F)(F)F)cn1)n2C1CCCC1` [compound 871, 1-cyclopentyl-6-ethyl-5-fluoro-2-{5-[(1,1,1-trifluoro-2-methylpropan-2-yl)sulfamoyl]pyridin-2-yl}-1H-indole-3-carboxamide], the melting point was 185 to 188 °C. For the same molecule, in series [1], the IC50 was below 500 nM.

Molecule `CCc1cc2c(cc1F)c(C(N)=O)c(-c1ccc(S(=O)(=O)NC3(C(F)(F)F)CC3)cn1)n2C1CCCC1` [compound 872, 1-cyclopentyl-6-ethyl-5-fluoro-2-(5-{[1-(trifluoromethyl)cyclopropyl]sulfamoyl}pyridin-2-yl)-1H-indole-3-carboxamide] came in with a melting point of 196 to 197 °C. Besides, the IC50 in series [1] was below 500 nM.

Take `Cc1cc2c(cc1F)c(C(N)=O)c(-c1ccc(S(=O)(=O)N[C@@H](C)C(F)(F)F)cn1)n2-c1ccccn1` [compound 874, 5-fluoro-6-methyl-1-(pyridin-2-yl)-2-(5-{[(2S)-1,1,1-trifluoropropan-2-yl]sulfamoyl}pyridin-2-yl)-1H-indole-3-carboxamide]: the melting point lay within 142 to 148 °C. For the same molecule, the IC50 in series [1] is below 500 nM.

As for `Cc1cc2c(cc1F)c(C(N)=O)c(-c1ccc(S(=O)(=O)N[C@@H](C)C(F)(F)F)cn1)n2-c1cnccn1` [compound 875, 5-fluoro-6-methyl-1-(pyrazin-2-yl)-2-(5-{[(2S)-1,1,1-trifluoropropan-2-yl]sulfamoyl}pyridin-2-yl)-1H-indole-3-carboxamide], the melting point was in the range of 162 to 169 °C. Besides, in series [1], the 50% inhibitory concentration (IC50) is below 500 nM.

The molecule `Cc1cc2c(cc1F)c(C(N)=O)c(-c1ccc(S(=O)(=O)N[C@@H](C)C(F)(F)F)cn1)n2-c1ccc(F)cn1` [compound 876, 5-fluoro-1-(5-fluoropyridin-2-yl)-6-methyl-2-(5-{[(2S)-1,1,1-trifluoropropan-2-yl]sulfamoyl}pyridin-2-yl)-1H-indole-3-carboxamide] gave a melting point of 224 to 228 °C. Besides, the IC50 in series [1] is below 500 nM.

Molecule `Cc1cc2c(cc1F)c(C(N)=O)c(-c1ccc(S(=O)(=O)N[C@@H](C)C(F)(F)F)cn1)n2-c1cccc(F)n1` [compound 877, 5-fluoro-1-(6-fluoropyridin-2-yl)-6-methyl-2-(5-{[(2S)-1,1,1-trifluoropropan-2-yl]sulfamoyl}pyridin-2-yl)-1H-indole-3-carboxamide] came in with a melting point of 210 to 214 °C. The IC50 in series [1] was below 500 nM.

The molecule `CCc1cc2c(cc1F)c(C#N)c(-c1ccc(S(=O)(=O)N[C@H](C)C(F)(F)F)cn1)n2-c1ccc(F)cn1` [compound 880, 6-[3-cyano-6-ethyl-5-fluoro-1-(5-fluoropyridin-2-yl)-1H-indol-2-yl]-N-[(2R)-1,1,1-trifluoropropan-2-yl]pyridine-3-sulfonamide] had a melting point of 209 to 216 °C. For the same molecule, in series [1], the IC50 was below 500 nM.

In turn, `CCc1cc2c(cc1F)c(C#N)c(-c1ccc(S(=O)(=O)N[C@@H](C)C(F)(F)F)c(C)n1)n2-c1ncccn1` [compound 881, 6-[3-cyano-6-ethyl-5-fluoro-1-(pyrimidin-2-yl)-1H-indol-2-yl]-2-methyl-N-[(2S)-1,1,1-trifluoropropan-2-yl]pyridine-3-sulfonamide] registered a melting point of 258 to 262 °C. In addition, the IC50 in series [1] is below 500 nM.

`CCc1cc2c(cc1F)c(C#N)c(-c1ccc(S(=O)(=O)NC(C)(C)C)cn1)n2-c1ccccn1` [compound 882, N-tert-butyl-6-[3-cyano-6-ethyl-5-fluoro-1-(pyridin-2-yl)-1H-indol-2-yl]pyridine-3-sulfonamide]: the melting point was 200 to 205 °C. The IC50 in series [1] is below 500 nM.

`CCc1cc2c(cc1F)c(C#N)c(-c1ccc(S(=O)(=O)NC(C)(C)C)cn1)n2-c1ccccc1` [compound 884, N-tert-butyl-6-(3-cyano-6-ethyl-5-fluoro-1-phenyl-1H-indol-2-yl)pyridine-3-sulfonamide] registered a melting point of 175 to 180 °C. Also, the IC50 in series [1] is below 500 nM.
